Test results: patent US20250161249A1, “USE OF PHENYLLACTIC ACID IN INHIBITING HELICOBACTER PYLORI INFECTION” (Zhejiang Gongshang University, priority 2022, published 2025)
In brackets after ≈: the same amount, converted by molar mass. Several values for one entry are separate records, joined by “and”; a condition that tells them apart may be missing. Identical values can stand only once. Entries after “also recorded” stand apart in the source; their conditions may differ.

What was measured:
H. pylori ZJC03 [1] = assay: Bacteriostasis experiment by Kirby-Bauer method (inhibition zone); type: cell-based, Helicobacter pylori; settings: 6 mm filter paper disk, 72 h
Description: Preparation of different concentrations of phenyllactic acid: phenyllactic acid was diluted two-fold to 40 mg/mL, 20 mg/mL, 10 mg/mL, 5 mg/mL, 2.5 mg/mL and 1.25 mg/mL. The solvent used for dilution was ultrapure water.
Preparation of antimicrobial susceptibility disks: filter paper was made into circular disks with a diameter of 6 mm, subjected to autoclaved sterilization for 15 min and dried. Each circular filter paper disk was completely soaked in phenyllactic acid solutions with different concentrations, and ultrapure water was taken as a blank control to obtain antimicrobial susceptibility disks with different concentrations.
Coating and culture: 100 μL of 10^8 CFU/mL of an H. pylori bacterial solution was evenly coated on a CBA medium and dried. Then the antimicrobial susceptibility disks with different concentrations of the phenyllactic acid were pasted on a plate by tweezers, and this operation was repeated 3 times for disks of each concentration. Then the plate was placed in a culture box (containing a microaerophilic gas-generating pack inside) and statically cultured at 37° C. for 72 h. The size of an inhibition zone (mm) was measured and the measurement result was recorded.

H. pylori ZJC03 [2] = assay: Antimicrobial susceptibility test of H. pylori ZJC03 (E-test paper); type: cell-based, Helicobacter pylori; settings: clinical strain H. pylori ZJC03, E-test paper
Description: The sensitivity of H. pylori ZJC03 was tested by using an E-text test paper.

[3] = system: gastric mucosal injury caused by H. pylori infection; assay: Histopathological observation (H&E) of gastric tissues of H. pylori infected mice; type: in vivo, C57BL/6J mice; settings: phenyllactic acid 0.8 mg/mL, 400 μL gavage daily 4 weeks, antibiotics 400 μL daily 10 days
Description: After one week of acclimation, mice were randomly divided into 4 groups: ZC, ZH, ZP and ZA. The mice in the groups were treated as follows: ZC group (15 mice): every mouse was gavaged once every other day with 400 μL of a modified Brucella broth medium for 2 weeks, followed by daily gavage of 400 μL of ultrapure water every day for 4 weeks. […] The bacterial content of the H. pylori ZJC03 suspension was 10^8 CFU/mL. After the molding, all the mice in each group were sacrificed by cervical dislocation. Gastric mucosa samples were washed with PBS and collected aseptically. The stomach contents were frozen in liquid nitrogen and subsequently stored at −80° C. for testing in Examples 8-10. The gastric mucosa was fixed in a 4% paraformaldehyde (PFA) buffer solution for 24 h at room temperature. After the treatment, the stomach tissue was embedded with an EG 1160 paraffin machine. The paraffin block was placed in an RM 2235 rotary microtome for sectioning (5 μm), and the sections were stained with hematoxylin and eosin (H&E). The stained sections were observed under a light microscope and photographed (NIKON Eclipse Ci, Japan); and the imaging system was: NIKON digital sight DS-FI2, and the photographic magnification was: 400× and 200×.

[4] = molecular target: T1, urease activity of H. pylori ZJC03 (Helicobacter pylori, UniProt P69996); assay: Urease activity of H. pylori, phenol red method; type: biochemical; settings: co-cultured 48 h
T1 construct: A total of 50 μL of the H. pylori culture solution and 50 μL of the phenyllactic acid; endogenous in cells; host or cells: Helicobacter pylori ZJC03 (live culture, 1×10^8 CFU/mL)
T1 sequence (P69996 whole entry): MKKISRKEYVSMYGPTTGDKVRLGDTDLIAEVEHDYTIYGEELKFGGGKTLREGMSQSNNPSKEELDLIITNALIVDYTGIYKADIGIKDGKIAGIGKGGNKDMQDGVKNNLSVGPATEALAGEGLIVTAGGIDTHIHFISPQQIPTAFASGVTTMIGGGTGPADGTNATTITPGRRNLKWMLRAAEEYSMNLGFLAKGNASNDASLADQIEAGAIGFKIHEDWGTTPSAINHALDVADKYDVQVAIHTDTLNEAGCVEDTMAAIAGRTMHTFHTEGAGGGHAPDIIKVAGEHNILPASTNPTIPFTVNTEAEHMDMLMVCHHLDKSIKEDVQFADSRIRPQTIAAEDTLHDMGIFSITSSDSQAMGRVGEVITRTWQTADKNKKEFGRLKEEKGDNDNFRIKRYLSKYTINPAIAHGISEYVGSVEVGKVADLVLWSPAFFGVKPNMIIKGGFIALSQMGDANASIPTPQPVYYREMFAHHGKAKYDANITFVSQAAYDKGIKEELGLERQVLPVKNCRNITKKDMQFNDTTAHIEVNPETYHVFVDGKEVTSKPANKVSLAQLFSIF
T1 sequence (P14916 whole entry, further chain): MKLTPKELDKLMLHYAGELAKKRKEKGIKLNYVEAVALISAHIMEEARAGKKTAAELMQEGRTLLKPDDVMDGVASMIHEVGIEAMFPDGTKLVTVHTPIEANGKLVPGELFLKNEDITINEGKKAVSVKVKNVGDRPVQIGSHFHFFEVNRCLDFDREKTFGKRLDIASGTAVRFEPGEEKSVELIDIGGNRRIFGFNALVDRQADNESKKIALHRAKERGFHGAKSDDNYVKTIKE

[5] = system: IFN-γ, IL-6, IL-1β and IL-10 in the stomach tissue; assay: RT-qPCR of inflammatory factors in gastric mucosal tissues of H. pylori infected mice; type: in vivo, C57BL/6J mice; settings: gavage
Description: After one week of acclimation, mice were randomly divided into 4 groups: ZC, ZH, ZP and ZA. The mice in the groups were treated as follows: […] After the molding, all the mice in each group were sacrificed by cervical dislocation. Gastric mucosa samples were washed with PBS and collected aseptically. The stomach contents were frozen in liquid nitrogen and subsequently stored at −80° C. for testing in Examples 8-10. The quantitative analysis of IFN-γ, IL-6, IL-1β and IL-10 in the stomach tissue was performed by RT-qPCR. Total RNA (100-500 ng/μL) was isolated from mouse stomach tissue samples according to the instructions of an RNA extraction kit, followed by reverse transcription of RNA into cDNA using the kit. The levels of each gene were normalized using GAPDH as an internal control. The RT-qPCR assay was performed according to the following thermal cycle program: pre-denaturation at 95° C. for 10 min, 40 cycles of 95° C. for 15 s and 60° C. for 30 s, and the melting curve was from 60° C. to 95° C. with a temperature increase of 0.3° C. every 15 s and the fluorescence signal was collected once, and a 2^−ΔΔCt method was used for calculation.

H. pylori ZJC03 [6] = assay: Ultra microstructure observation (SEM, TEM, negative-stain TEM); type: cell-based, Helicobacter pylori; settings: at the MIC
H. pylori [7] = assay: Effects of sub-inhibitory concentrations on growth curves of H. pylori; type: cell-based, Helicobacter pylori
Description: According to the determination of the bacteriostatic ability, the effects of phenyllactic acid on growth curves were analyzed. An H. pylori suspension cultured overnight was inoculated into a sterilized modified Brucella broth medium. The concentration was adjusted such that the initial inoculum size of the bacteria was 1×10^8 CFU/mL. The phenyllactic acid was added at the final concentrations of ⅛ MIC, ¼ MIC, ½ MIC and MIC, and no drug was added to the control group. The mixed solution was placed in a microaerobic environment at 37° C. for 120 h, the OD560 value was determined every other 12 h, and the changes of the growth curves at sub-inhibitory concentrations were observed and recorded.

mouse gastric flora = assay: Gastric microbiota analysis by 16S rRNA gene sequencing in H. pylori infected mice; type: in vivo, C57BL/6J mice
Description: After one week of acclimation, mice were randomly divided into 4 groups: ZC, ZH, ZP and ZA. The mice in the groups were treated as follows:
ZP group (45 mice): every mouse was gavaged once every other day with 400 μL of the H. pylori ZJC03 bacterial suspension for 2 weeks, followed by daily gavage of 400 μL of phenyllactic acid (at the concentrations of 0.16 mg/mL, 0.32 mg/mL and 0.8 mg/mL respectively, and 15 mice for each concentration) every day for 4 weeks.
ZA group (15 mice): every mouse was gavaged once every other day with 400 μL of the H. pylori ZJC03 bacterial suspension for 2 weeks, followed by 10 days of gavage of combined antibiotics (at the dose of 400 μL per mouse per day), and after 10 days, each mouse continued to be gavaged with 400 μL of ultrapure water for 18 days.
After the molding, all the mice in each group were sacrificed by cervical dislocation. Gastric mucosa samples were washed with PBS and collected aseptically. The stomach contents were frozen in liquid nitrogen and subsequently stored at −80° C. for testing in Examples 8-10.
DNA samples were extracted from the gastric mucosa by a CTAB method, and the quality of DNA extraction was detected by agarose gel electrophoresis, and at the same time, the DNA was quantified by an ultraviolet spectrophotometer. The hypervariable regions V3-V4 of 16S rRNA of bacteria were amplified by using universal primers (341F and 805R). Paired-end sequencing of 2×250 bp was performed using a NovaSeq 6000 sequencer, and DNA extraction and sequencing were completed in the LC-Bio Technologies Co. Ltd.

H. pylori [8] = assay: Determination of minimum inhibitory concentration (agar dilution method); type: cell-based, Helicobacter pylori; settings: 37° C., 48 h, microaerobic
[9] = gastric mucosa, ZP = 0.8 mg/mL phenyllactic acid, ZA = antibiotic treatment

CC(O)C(=O)O (stereo not shown) [lactic acid]
Inhibition zone diameter (H. pylori ZJC03 [1]; 10 mg/mL solution): no visible inhibition zone

CC1(C)S[C@@H]2[C@H](NC(=O)[C@H](N)c3ccc(O)cc3)C(=O)N2[C@H]1C(=O)O [Amoxicillin]
Sensitivity of H. pylori ZJC03 to antibiotics (H. pylori ZJC03 [2]): 0.016 µg/mL

Cc1ncc([N+](=O)[O-])n1CCO [Metronidazole]
Sensitivity of H. pylori ZJC03 to antibiotics (H. pylori ZJC03 [2]): insensitive

O=C(O)C(O)Cc1ccccc1 (stereo not shown) [phenyllactic acid, Phenyllactic acid]
H&E histopathology of gastric mucosa [3]: the tissue structure was substantially normal; also recorded: inflammatory cells basically disappeared
inhibitory effect on urease activity ([4]; at 0.25 MIC): no significant inhibitory effect
inhibitory effect on urease activity ([4]; at 0.5 MIC): no significant inhibitory effect
inhibition rate of urease activity ([4]; at 2 MIC): 80.13%±1.18%
inhibition rate of urease activity ([4]; at the MIC): 43.01%+2.11% and 43.01%±2.11%
IFN-γ gene expression in gastric mucosa vs ZH modeling group [5]: significantly decreased; also recorded: significantly reduce
IL-1β gene expression in gastric mucosa vs ZH modeling group [5]: significantly decreased; also recorded: significantly reduce
IL-6 gene expression in gastric mucosa vs ZH modeling group [5]: significantly decreased; also recorded: significantly reduce
IL-10 relative expression level in gastric mucosa vs ZH modeling group [5]: increased without a statistical difference
bacterial cell morphology, negative-stain transmission electron microscopy (H. pylori ZJC03 [6]; 5-10 min): The flagella of the bacterial cells fell off
bacterial cell internal structure, transmission electron microscopy (H. pylori ZJC03 [6]; 4 h): the cell walls were separated from the cell membranes
bacterial cell morphology, scanning electron microscopy (H. pylori ZJC03 [6]; 4 h): most bacterial cells appeared to be disintegrated
growth of H. pylori (growth curve, OD560) (H. pylori [7]; MIC, 48 h, 72 h, 96 h and 120 h): completely inhibited; also recorded: significantly inhibited
growth of H. pylori (growth curve, OD560) (H. pylori [7]; ¼ MIC): a certain bactericidal effect
growth of H. pylori (growth curve, OD560) (H. pylori [7]; ½ MIC, 48 h, 72 h, 96 h and 120 h): significantly inhibited
growth of H. pylori (growth curve, OD560) (H. pylori [7]; ⅛ MIC): basically not inhibited
effect on the diversity of the gastric flora (mouse gastric flora; ZP group compared with ZA group): no significant effect
decrease of relative abundance of Helicobacter pylori compared with ZH group (mouse gastric flora; after 4 weeks of treatment): 9.46%
gastric flora with significant increases at the genus level (LEfSe, LDA>3) (mouse gastric flora; after 4 weeks of treatment): Prevotella, Lactobacillus, Faecalibaculum, Olsenella, Aerococcus
Chao1 (alpha diversity) (mouse gastric flora; [9]): 464.56
Observed species (alpha diversity) (mouse gastric flora; [9]): 453.6
Shannon (alpha diversity) (mouse gastric flora; [9]): 6.139
Simpson (alpha diversity) (mouse gastric flora; [9]): 0.9287
Helicobacter in the stomach (mouse gastric flora; genus level): significantly inhibit
content / growth of Lactobacillus in the stomach (mouse gastric flora; genus level): improved; also recorded: significantly promote the growth
relative abundance of Lactobacillus in gastric microbiota (mouse gastric flora; genus level): 22.39%
proportion of Proteobacteria in gastric flora vs ZH group (mouse gastric flora; phylum level): significantly decreased
ratio of Bacteroides to Firmicutes in gastric flora (mouse gastric flora; phylum level): increased
minimum inhibitory concentration (MIC) (H. pylori [8]): 2500 µg/mL (≈ 15 mM)
Inhibition zone diameter (H. pylori ZJC03 [1]; 1.25 mg/mL solution): no inhibition zone
Inhibition zone diameter (H. pylori ZJC03 [1]; 2.5 mg/mL solution): 6.94 ± 0.95 mm
Inhibition zone diameter (H. pylori ZJC03 [1]; 5 mg/mL solution): 7.51 ± 0.74 mm
Inhibition zone diameter (H. pylori ZJC03 [1]; 10 mg/mL solution): 9.98±0.97 mm
Inhibition zone diameter (H. pylori ZJC03 [1]; 20 mg/mL solution): 12.41 ± 0.14 mm
Inhibition zone diameter (H. pylori ZJC03 [1]; 40 mg/mL solution): 15.35 ± 0.94 mm

CN(C)[C@@H]1C(O)=C(C(N)=O)C(=O)[C@@]2(O)C(O)=C3C(=O)c4c(O)cccc4[C@@](C)(O)[C@H]3C[C@@H]12 [Tetracycline]
Sensitivity of H. pylori ZJC03 to antibiotics (H. pylori ZJC03 [2]): 0.023 µg/mL

CC[C@H]1OC(=O)[C@H](C)[C@@H](O[C@H]2C[C@@](C)(OC)[C@@H](O)[C@H](C)O2)[C@H](C)[C@@H](O[C@@H]2O[C@H](C)C[C@H](N(C)C)[C@H]2O)[C@](C)(OC)C[C@@H](C)C(=O)[C@H](C)[C@@H](O)[C@]1(C)O [Clarithromycin]
Sensitivity of H. pylori ZJC03 to antibiotics (H. pylori ZJC03 [2]): 0.8 µg/mL
